# Measurements: the COVID Moonshot data (paper PMC7615835)
# Values joined by “and” are separate entries in the source; they are usually repeats but may differ in a detail not shown here. Equal entries are not always repeated.
# Biological target: SARS-CoV-2 Main Protease (SARS-CoV-2) (UniProt P0DTD1)
row,SMILES,IC50
1,C[C@H]1C[C@@H](C(=O)Nc2cncc3ccccc23)c2cc(Cl)ccc2O1 (stereo in doubt),20.1 µM
2,O=C(Cc1cc(Cl)cc(Nc2ccccc2Sc2ccccc2)c1)Nc1cncc2ccccc12,2.47 µM
3,CC(C)=CCC/C(C)=C/CC/C(C)=C/CC/C(C)=C/Cc1cc(O)cc2c1OC(=O)C2=C(C)C,> 99.5 µM
4,Cc1noc(C)c1CCNC(=O)Nc1cn(CC(C)C)c(=O)c2ccccc12,27.7 µM
5,CC(=O)c1ccccc1C(=O)N(c1ccc(C(C)(C)C)cc1)C(C(=O)NCCc1cccc(F)c1)c1cccnc1 (centres undefined),> 99.5 µM
6,CC(C)(C)c1ccc(N(C(=O)c2c[nH]nn2)C(C(=O)NCCc2cccc(F)c2)c2cccnc2)cc1 (centres undefined),1.17 µM
7,O=C(Cc1cc(Cl)cc(N2CC=C(c3ccccc3)CC2)c1)Nc1cncc2ccccc12,1.66 µM
8,CN(Cc1cccc([N+](=O)[O-])c1)c1cc(Cl)cc(CC(=O)Nc2cncc3ccccc23)c1,1.53 µM
9,CCOc1ccccc1CNc1cc(Cl)cc(CC(=O)Nc2cncc3ccccc23)c1,2.07 µM
10,NS(=O)(=O)c1ccc(CNC(=O)CC2(C(=O)Nc3cncc4ccccc34)CCOc3ccc(Cl)cc32)cc1 (centres undefined),3.72 µM
11,O=C1NCC(C(=O)Nc2cnn3ccccc23)c2cc(Cl)ccc21 (centres undefined),7.09 µM
12,O=C(Nc1cnn2ccccc12)C1CCS(=O)(=O)c2ccc(Cl)cc21 (centres undefined),3.89 µM
13,O=C(Cc1cc(Cl)cc(NCc2ccccc2Br)c1)Nc1cncc2ccccc12,3.5 µM
14,O=C(Nc1cncc2ccccc12)C12CC(C1)Oc1ccc(Cl)cc12,56.4 µM
15,CC(C)(C)c1ccc(N(C(=O)c2ccn[nH]2)C(C(=O)NCCc2cccc(F)c2)c2cccnc2)cc1 (centres undefined),1.78 µM
16,COC(=O)C(C(=O)Nc1cnccc1C)c1cccc(Cl)c1 (centres undefined),23.7 µM
17,O=c1[nH]c2ccc(-c3csc(NCc4ccc(F)cc4)n3)cc2o1,> 99.5 µM
18,CC(C)(C)c1ccc(N(C(=O)c2ccnc(N3CCOCC3)n2)C(C(=O)NCCc2cccc(F)c2)c2cccnc2)cc1 (centres undefined),> 99.5 µM
19,O=C(Cc1cc(Cl)cc(Nc2ncc(Br)c(C(F)(F)F)n2)c1)Nc1cncc2ccccc12,1.84 µM
20,CN(C)c1ccc(C(Cc2ccsc2)C(=O)Nn2cnc3ccccc32)cc1 (centres undefined),> 99.5 µM
21,O=C(Cc1cc(Cl)cc(Nc2ccc(Br)c(C(F)(F)F)c2)c1)Nc1cncc2ccccc12,2.31 µM
22,O=C(Nc1nncn1C1CC1)C1CCOc2ccc(Cl)cc21 (centres undefined),0.513 µM and 0.696 µM
23,CC(C)(C)c1ccc(N(C(=O)c2cocn2)C(C(=O)NCCc2cccc(F)c2)c2ccnnc2)cc1 (centres undefined),2.05 µM
24,Cc1nc2ccc(NCc3cnc4ccccn34)cn2n1,> 99.5 µM
25,C=CC(=O)N(c1ccc(C(C)(C)C)cc1)C(C(=O)NCCCSC)c1cccnc1 (centres undefined),25.5 µM

row,SMILES,IC50
1,O=C(Cc1cc(Cl)cc(Nc2ccc(-n3cccn3)cc2)c1)Nc1cncc2ccccc12,2.12 µM
2,CCOC(=O)c1cc(-c2ccccc2)sc1NC(=O)Cc1csc(-c2ccccc2)n1,4.66 µM
3,O=C(Cc1cc(Cl)cc(N2CCc3c([nH]c4ccccc34)C2)c1)Nc1cncc2ccccc12,2.02 µM
4,CC(NC(=O)c1cc2n(n1)CCO2)(C(=O)Nc1cncc2ccccc12)c1ccc(Cl)c(Cl)c1 (centres undefined),6.89 µM and 10.5 µM
5,Cc1ccncc1NC(=O)CC(C)C(C)C (centres undefined),> 99 µM
6,O=C(Cc1cc(Cl)cc(NCC(c2ccccc2)c2ccccc2)c1)Nc1cncc2ccccc12,5.82 µM
7,O=C(NCCc1cccc(F)c1)C(c1cccnc1)N(C(=O)c1ccco1)[C@H]1C[C@H](c2cc(F)cc(F)c2)C1 (some centres undefined),> 99.5 µM
8,C=CC(=O)N(c1ccc(I)cc1)C(C(=O)Nc1ccc(Cl)cc1)c1cncnc1 (centres undefined),26.3 µM
9,C=CC(=O)NCC(=O)N(Cc1ccccc1)C[C@H](O)c1cccs1 (stereo in doubt),> 99.5 µM
10,O=C(Cc1cc(Cl)cc(Nc2ccncc2Br)c1)Nc1cncc2ccccc12,2.18 µM
11,O=C(CCl)N1CCN(C2(c3cccc(Cl)c3)CC2)CC1,64.9 µM and 42.1 µM
12,O=C1OC(c2cccs2)=N/C1=C\c1ccc(N2CCOCC2)s1,0.696 µM
13,O=C(Cc1cc(Cl)cc(N2CCN(c3ccc(O)cc3)CC2)c1)Nc1cncc2ccccc12,2.19 µM
14,CC(C)(C)c1ccc(N(C(=O)c2nnn[nH]2)C(C(=O)NCCc2cccc(F)c2)c2cccnc2)cc1 (centres undefined),> 99.5 µM
15,CN(CCO)C1CCN(C(=O)CC2(C(=O)Nc3cncc4ccccc34)CCOc3ccc(Cl)cc32)CC1 (centres undefined),37.6 µM
16,O=C(Cc1cc(Cl)cc(NCc2cc(Cl)cc(Cl)c2)c1)Nc1cncc2ccccc12,1.72 µM
17,Cc1nc2ccc(N(C(=O)c3cocn3)C(C(=O)NCCc3cccc(F)c3)c3cccnc3)cc2o1 (centres undefined),> 99.5 µM
18,COC(=O)c1c(C)n(S(C)(=O)=O)c2ccc(N(C(=O)c3ccco3)S(C)(=O)=O)cc12,0.935 µM
19,C=CC(=O)N(c1ccc(C2(C)CC2)cc1)C(C(=O)Nc1ccc(Br)cc1)c1cccnc1 (centres undefined),83.7 µM and 81.2 µM
20,CC(C)(C)c1ccc(N(C(=O)c2ccco2)C(C(=O)N2CCOCC2)c2cccnc2)cc1 (centres undefined),41 µM
21,O=C(NCCc1cccc(F)c1)C(c1cccnc1)N(C(=O)c1cnc[nH]1)C1CCC2OCCC2C1 (centres undefined),> 99 µM
22,CNC(=O)CN1CC(C)(C(=O)Nc2cncc3cc(F)ccc23)c2cc(Cl)ccc2S1(=O)=O (centres undefined),0.248 µM
23,Cc1cc2c(cc1S(=O)(=O)N1CCN(c3ccccc3)CC1)OCO2,> 99.5 µM
24,Cc1cc(C)n(-c2cc(Cl)cc(CC(=O)Nc3cncc4ccccc34)c2)c(=O)c1CN,2.41 µM
25,O=C(CCl)N1CCN(C(c2ccccc2)C2CCCCC2)CC1 (centres undefined),5.72 µM and 2.98 µM

row,SMILES,IC50
1,Cc1nc2ccc(NC(=O)NCc3ccc4[nH]c(=O)[nH]c4c3)cc2o1,> 99.5 µM
2,O=C(Nc1n[nH]c2ccnc(Br)c12)C1CCOc2ccc(Cl)cc21 (centres undefined),> 99.5 µM
3,COC(=O)c1c(C)nn(C(=O)c2cccs2)c1-c1snnc1C,5.72 µM
4,CS(=O)(=O)c1ncc(Cl)c(C(=O)Nc2ccccc2Cc2ccccc2)n1,0.469 µM and 0.54 µM
5,Cc1ccncc1NC(=O)Cc1cccc(Br)c1,20.6 µM
6,Cc1cccc(C2CN(C(=O)CCl)Cc3ccccc32)c1 (centres undefined),2 µM
7,O=C(Nc1cncc2ccccc12)C1CN(S(=O)(=O)CC2(F)CC2)Cc2ccc(Cl)cc21 (centres undefined),0.176 µM
8,O=C(Cc1cccc(Cl)c1)N1Cc2ccccc2C(O)C1 (centres undefined),14.8 µM
9,O=C(Cn1nnc2ccccc21)N(Cc1ccccn1)c1cnc(-c2ccccc2)nc1,> 99.5 µM
10,O=C(Cc1cc(Cl)cc(Nc2ncc(Br)cc2O)c1)Nc1cncc2ccccc12,3.23 µM
11,O=C(Cc1cc(Cl)ccc1Cl)Nc1cncc2ccccc12,1.02 µM
12,O=C(Nn1nnc2ccccc21)C(Cc1cccc(Cl)c1)c1ccc(N2CCCCC2=O)cc1 (centres undefined),50.9 µM
13,CC(C)(C)c1ccc(N(C(=O)c2cocn2)C(C(=O)NCCc2cccc(F)c2)c2cccnc2)cc1 (centres undefined),0.557 µM
14,O=C(Cc1cccc(Cl)c1)Nc1noc2ccccc12,> 99.5 µM
15,N#Cc1cc(N(C(=O)c2ccco2)C(C(=O)NCCc2cccc(F)c2)c2cccnc2)ccc1Oc1ccc(C(F)(F)F)cc1 (centres undefined),> 99.5 µM
16,CCC(=O)Nc1ccc(N(Cc2ccccc2)C(=O)Nn2nnc3ccccc32)cc1,3.59 µM
17,O=C(Nc1cncc2ccccc12)C1CCOc2c(OCc3ccccc3)cc(Cl)cc21 (centres undefined),36.5 µM
18,N#CC1CN(S(=O)(=O)NCc2ccc(Cl)cc2CC(=O)Nc2cncc3ccccc23)C1,0.231 µM
19,COc1ccncc1NC(=O)Cc1cccc(Cl)c1,21.6 µM
20,CC(C)(C)c1ccc(N(C(=O)c2cn3ccccc3n2)C(C(=O)NCCc2cccc(F)c2)c2cccnc2)cc1 (centres undefined),18.2 µM
21,Cc1cc(F)cc(Br)c1Nc1cc(Cl)cc(CC(=O)Nc2cncc3ccccc23)c1,2 µM
22,COc1nc2ncc(C(C(=O)NCCc3cccc(F)c3)N(C(=O)c3cocn3)c3ccc(C(C)(C)C)cc3)cn2n1 (centres undefined),33.4 µM
23,CCNC(=O)CN1CC(C(=O)Nc2cncc3cc(S(C)(=O)=O)ccc23)c2cc(Cl)ccc2C1=O (centres undefined),0.0675 µM and 0.134 µM
24,C=CC(=O)NCc1ccc(C(=O)N[C@H](CO)c2ccc(Br)c(F)c2)cc1 (stereo in doubt),> 99.5 µM
25,CCCCn1nnnc1CNC1CCc2nc(C(C)C)nn2C1 (centres undefined),> 99.5 µM

row,SMILES,IC50
1,CC(C)(C)c1ccc(N(C(=O)c2cc(C3(O)COC3)on2)C(C(=O)NCCc2cccc(F)c2)c2cccnc2)cc1 (centres undefined),26.2 µM
2,O=C(Cc1cccc(C(F)(F)F)c1)Nc1cncc2ccccc12,6.94 µM
3,C=CC(=O)NCc1ccc(C(=O)NCc2cc(C)cc3c(C)c(C)[nH]c23)cc1,> 99.5 µM
4,CC(NC(=O)C1CCC(=O)NC1)(C(=O)Nc1cncc2ccccc12)c1ccc(Cl)c(Cl)c1 (centres undefined),4.1 µM
5,CC(C)NS(=O)(=O)N1Cc2ccc(Cl)cc2C(C(=O)Nc2cncc3ccccc23)C1 (centres undefined),0.195 µM
6,CS(=O)(=O)c1ccc2cncc(NC(=O)C3CNC(=O)c4c(F)cc(F)cc43)c2c1 (centres undefined),3.6 µM
7,CN1C(=O)CCc2cc(N(C(=O)c3cnc[nH]3)C(C(=O)NCCc3cccc(F)c3)c3cccnc3)ccc21 (centres undefined),> 99 µM
8,Nc1nn(C(=O)Cc2cccc(Cl)c2)c2cccnc12,> 99.5 µM
9,COc1ccccc1OC(C)CNC(=O)c1cc(=O)[nH]c2cc(F)ccc12 (centres undefined),> 99.5 µM
10,CNC(=O)c1ccc2cncc(NC(=O)C3CN(S(=O)(=O)CC4(C#N)CC4)Cc4ccc(Cl)cc43)c2c1 (centres undefined),0.116 µM
11,O=C(Nc1nn2cnnc2s1)c1csc(-c2ccccc2)n1,> 99.5 µM
12,O=C(Nc1cncc2cc(Cl)ccc12)C12CC(C1)Oc1ccc(Cl)cc12,> 99.5 µM
13,COc1cc(Cl)c(C)cc1Nc1cc(Cl)cc(CC(=O)Nc2cncc3ccccc23)c1,1.58 µM
14,Cc1cccc2ncc(NC(=O)Cc3cccc(Cl)c3)n12,5.54 µM
15,CC(C)(C)c1ccc(N(C(=O)c2ccns2)C(C(=O)NCCc2cccc(F)c2)c2cccnc2)cc1 (centres undefined),51.1 µM
16,Cc1ccncc1NC(=O)Cc1ccccc1N,> 99.5 µM
17,O=C(CN1CC(C(=O)Nc2cncc3cc(F)ccc23)c2cc(Cl)ccc2C1=O)NC1COC1 (centres undefined),1.01 µM
18,CC(C)NC(=O)CN1CC(C(=O)Nc2cncc3ccccc23)c2cc(Cl)ccc2C1=O (centres undefined),0.389 µM
19,CC1(NC(=O)Cc2cccc(Cl)c2)CCNC1=O (centres undefined),> 99.5 µM
20,O=C(Cc1ccc(Cl)c(Cl)c1)Nc1cncc2ccncc12,1.79 µM
21,COC1(CS(=O)(=O)N2Cc3ccc(Cl)cc3C3(CCN(c4cncc5cc(S(C)(=O)=O)ccc45)C3=O)C2)CC1 (centres undefined),0.413 µM
22,Cc1ccc(-n2c(C)c(C)n3c4c(=O)n(CCCO)c(=O)n(C)c4nc23)cc1Cl,> 99.5 µM
23,CN(C)C(=O)C[C@@]1(C(=O)Nc2cncc3ccccc23)CCOc2ccc(Cl)cc21 (stereo in doubt),20.5 µM
24,CCc1n[nH]c(=O)c(-c2nc(-c3c[nH]c4ncccc34)cs2)c1CC,> 99.5 µM
